Laboratory results published in patent publication US8858995B2, “Methods and compositions for controlled delivery of phytochemical agents” (priority 2008, dated 2014).
Like-named read-outs stand apart in the source and are kept apart here.

Tests used:
[1] = extruded implants
[2] = Tissue curcuminoid levels after coated implants (UPLC); assay type: in vivo, A/J mice; details: female, A/J, mouse
Experimental: Briefly, liver and brain tissues (500 and 400 mg, respectively) from each animal were homogenized in 3 ml PBS (pH 7.4) containing 200 μl of 0.5 M sodium acetate, and extracted with ethyl acetate. After evaporation of the pooled extracts, the residue was reconstituted in 100 μl acetonitrile and analyzed by UPLC using Shimadzu UPLC system (Kyoto, Japan), with a Shim-Pack XR-ODS II reverse phase column (Shimadzu; 150×3.0 mm i.d., 2.2 μm).

[3] = test system: 17β-estradiol-induced mammary tumors; assay type: in vivo, ACI rats; details: for animals that developed palpable tumors: control 100% after 26 wks
Text: Cancer chemoprevention approaches have been used to manipulate tumorigenesis and reduce the transformation of normal/pre-cancerous cells to malignancy. Many compounds that have worked in cell culture studies though have failed in animal models and clinical trials due to lack of bioavailability. Additionally, the high doses required to elicit biological response can be toxic. The following experiments were designed to test the hypothesis that the effective dose of phytochemical agents, administered systemically via implantation of a silastic implant incorporating the agents, can be reduced substantially compared with the traditional dietary route and were also designed to determine the effect of individual phytochemical agents on mammary carcinogenesis. The silastic implants used in the experiments described below were fabricated by filling silastic tubing with a desired agent. Although the silastic implants are not biodegradable like compositions disclosed herein comprising biocompatible polymeric matrices, the silastic implants provide proof of concept that a reduced dose of phytochemical agents administered systemically can be effective in inhibiting mammary carcinogenesis.
Initially, an experiment was performed by subcutaneously implanting individual phytochemical agents using a large number of animals per group (n=17-19). […] Two weeks later, all groups received 3 cm biocompatible silastic implants incorporating 27 mg of 17β-estradiol. Six months later, after all animals had developed mammary tumors, the animals were euthanized and the mammary tumors were counted and their size measured. […] However, 30-55% reductions were found in the tumor burden with all test agents (FIG. 23A) as measured by tumor volume, with ellagic acid resulting in the most significant reduction in tumor burden (55%). The foregoing results thus support the effectiveness of ellagic acid, a significant component in certain berries, as an exemplary phytochemical compound that can be administered via a biocompatible silastic implant to inhibit or reduce estrogen-induced ACI rat mammary carcinogenicity.
To further evaluate the effectiveness of ellagic acid in estrogen-induced mammary carcinogenicity and to determine whether the effective dose of ellagic acid administered systemically via a biocompatible silastic implant can be reduced substantially compared with the traditional dietary route, ellagic acid was administered either in the diet (400 ppm) or by subcutaneous implantation of a biocompatible silastic implant incorporating an effective amount of ellagic acid (27 mg/implant, 4 implants). […] All groups received diet and water ad libitum. The body weight and diet consumption were recorded weekly. The animals were palpated for mammary tumors, and were euthanized when the largest tumor reached >1 cm. The first tumor in the control group appeared after nearly 84 days. However, the first tumor appearance with ellagic acid implants or ellagic acid-supplemented diet was somewhat delayed by 2 and 3 weeks, respectively. The control group reached 100% tumor incidence after 26 wks, but only 75% or 69% of the animals developed palpable tumors in the groups that received ellagic acid by implants or diet, respectively. […] Similar reductions were also observed in the tumor multiplicity (4.00±0.63 and 4.80±0.4 tumors/rat with implant and diet, respectively versus 6.77±0.87 in the control group) (FIG. 24A).
The total amount of ellagic acid administered during the entire duration of the study by diet was 800 mg/rat while the subcutaneous implantation of the biocompatible silastic implant incorporating ellagic acid delivered only 1.48±0.87 mg per implant, as determined by HPLC measurement of the material left in implants recovered after termination.

DNA adducts in the liver = test: Liver DNA adducts after a bolus dose of dibenzo[a,1]pyrene (32P-postlabeling); assay type: in vivo, Sprague-Dawley rats; details: 2 cm PCL:cyclodextrin (9:1) matrix, 10% w/w; bolus dibenzo[a,1]pyrene; 5 days after carcinogen
Experimental: Eleven days later, the animals were treated with a bolus dose of dibenzo[a,1]pyrene. The animals were then euthanized 5 days after the carcinogen treatment and liver samples were collected.

[4] = In vitro release from coated (and extruded) polymeric implants; assay type: physicochemical
Experimental: To formulate the “coated” polymeric implants, blank P-80 implants (1.4 mm dia) were then prepared by dissolving P-80:F68 (9:1) in dichloromethane, followed by evaporation of the solvent in a Petri dish under hood and extrusion of the molten polymer through a silastic tubing mold, similar to the methodologies described herein above. […] For coating, one end of the blank implant (2.5-3.5 cm) was inserted into a silastic tube plug (6 mm long, 1.4 mm dia) while the other end of the plug was attached with a pipet tip. Coatings were then added by dipping the blank implant into the solution with intermittent drying with cool air using a commercial hair dryer and placing them under hood. […] The assembly was placed under hood overnight to remove the residual DCM, implants were excised in 1 or 2 cm lengths and stored in amber vials under argon at -20° C. until used. The rate of in vitro release for the implants was subsequently measured. […] The vials were placed in a water bath (Julabo S W 23, Seelback, Germany) at 37° C. with constant agitation at 110 rpm. The medium was changed every 24 h.

DBP-DNA adducts = test: Dibenzo[a,I]pyrene (DBP)-DNA adducts in lung (32P-postlabeling); assay type: in vivo, A/J mice; details: two 1.5 cm coated implants; DBP implant; 3 weeks
Experimental: (§1) To assess the coated implants (i.e., where the compositions were in the form of coatings), in vivo studies were also performed. […] All groups of animals were also treated with dibenzo[a,I]pyrene (DBP) via polymeric implants (1-cm, 1.4 mm dia, 5% DBP load) at the same time. Implants were grafted subcutaneously, and animal were euthanized after 3 weeks. […] In both cases, animals were euthanized by CO2 asphyxiation and selected tissues (lung, liver and brain) were collected and stored at −80° C. until processing. Implants were also recovered, dried under vacuum and stored in amber vials under argon at 4° C. until analysis.
To analyze the formation of DNA adducts, DNA was isolated from lung tissue (200 mg) by treatment of the isolated crude nuclei with RNases and proteinase K, followed by extractions with phenol, phenol:Sevag and Sevag. DNA was recovered by ethanol precipitation and its concentration was measured spectrophotometrically considering 1 A260 equals 50 μg DNA. DNA adducts were analyzed by nuclease P1-mediated ^32P-postlabeling/TLC assay and expressed as adducts per 10^9 nucleotides.

[5] = mouse, sc
Experimental: as §1
The supernatants were diluted with ethanol:DCM (80:20) and their concentrations were measured spectrophotometrically at maximal absorbance and the concentrations were calculated against standard curves of individual compounds.

[6] = test system: human lung cancer A549 cell xenografts; test: Human lung cancer xenograft inhibition by withaferin A; assay type: in vivo, athymic nude mice
Experimental: Additionally, to assess the effect of the implants on tumor xenografts, five- to six-week old female athymic nude mice (Harlan Laboratories, Indianapolis, Ind.) were acclimated for a week and then inoculated with human lung cancer (A549) cells (3×10^6 cells) in matrigel. […] Animals were weighed and the tumors were measured by a digital caliper weekly. At the end of 6 to 8 weeks, animals were euthanized by CO2 asphyxiation, tumors were collected and measured.

breast cancer incidence = details: pre-menopausal women with a family history of breast cancer, high consumption; cited from earlier work

Molecule: CC(=O)OC(C)(C)/C=C/C(=O)[C@](C)(O)[C@H]1[C@H](O)C[C@@]2(C)[C@@H]3CC=C4[C@H](C[C@H](O)C(=O)C4(C)C)[C@]3(C)C(=O)C[C@]12C [cucurbitacin B]
- burst release and local toxicity [1]: burst release phenomenon and sign of local toxicity

Molecule: COc1cc(/C=C/C(O)=C/C(=O)/C=C/c2ccc(O)cc2)ccc1O [curcuminoid II, demethoxycurcumin]
- concentration at 21 days ([2]; in vivo): 1 ng/g

Molecule: O=C(/C=C/c1ccc(O)cc1)CC(=O)/C=C/c1ccc(O)cc1 [curcuminoid III, bisdemethoxycurcumin]
- concentration at 21 days ([2]; brain, subcutaneous, 2 1.5 cm implants (60 mg/implant, approximately 10% drug load), delivered individually by implant, 21 days, read-out: level in brain tissue): 6.4 ng/g
- concentration at 21 days ([2]; liver, subcutaneous, 2 1.5 cm implants (60 mg/implant, approximately 10% drug load), delivered individually, two 1.5-cm implants, 21 days, read-out: level in the liver): 5 to 6 ng/g

Molecule: O=c1oc2c(O)c(O)cc3c(=O)oc4c(O)c(O)cc1c4c23 [ellagic acid]
- reduction in tumor burden (tumor volume) ([3]; 3 cm silastic implant, 27 mg agent, six months): 55%
- tumor multiplicity ([3]; diet): 4.80±0.4 tumors/rat
- delay of first tumor appearance ([3]; diet 400 ppm): 3 weeks
- animals that developed palpable tumors ([3]; diet 400 ppm): 69%
- tumor burden ([3]; dietary 400 ppm): 269±61 mm^3
- tumor multiplicity ([3]; implant): 4.00±0.63 tumors/rat
- tumor burden ([3]; implant (slow release)): 454±105 mm^3
- animals that developed palpable tumors ([3]; implants): 75%
- amount delivered per implant over the study ([3]; rat, in vivo): 1.48±0.87 mg per implant
- delay of first tumor appearance ([3]; silastic implants, 27 mg/implant, 4 implants): 2 weeks

Molecule: Cc1c(-c2cnccn2)ssc1=S [oltipraz]
- DNA adducts in the liver (DNA adducts in the liver): reduced the amount of B[a]P-induced DNA adducts
- release in PBS alone ([4]; 37° C., no serum): essentially no release
- release kinetics ([4]; PBS with 10% bovine serum, 60 days): essentially zero-order kinetics
- cumulative release after 60 days ([4]; in vitro): ~27%
- cumulative release over 3 weeks (21 days) ([4]; in vitro, PBS with 10% bovine serum): about 12%
- lung DBP-DNA adduct levels (DBP-DNA adducts): reduction was statistically significant
- total release in vivo at the end of 3 weeks [5]: 18.6%

Molecule: CC1=C(CO)C(=O)O[C@@H]([C@@H](C)[C@H]2CC[C@H]3[C@@H]4C[C@H]5O[C@]56[C@@H](O)C=CC(=O)[C@]6(C)[C@H]4CC[C@]23C)C1 [withaferin A]
- burst release and local toxicity [1]: burst release phenomenon and sign of local toxicity
- lung DBP-DNA adduct levels (DBP-DNA adducts): reduction in the DNA adduct levels
- total dose administered via the implants ([6]; calculated from residual amount in the implants, versus 5.6 mg i.p.): 2.69 mg
- reduction in the growth of the tumor ([6]; coated implants, two 1.5-cm, 5% drug load): 51%
- body weight versus sham ([6]; end of the 8-week study, implants): essentially the same body weight
- reduction of the tumor ([6]; intraperitoneally 4 mg/kg): no reduction
- inhibition of the tumor ([6]; intraperitoneally 8 mg/kg on alternate days): 53%

Molecule: vitamin E
- reduction in breast cancer incidence (breast cancer incidence): 43%
